According to patent publication US20170354639A1, “DITERPENOID DERIVATIVES AND METHODS OF USE THEREOF” (Biogen MA Inc., priority 2014, published 2017):

Molecular target: Nrf2-Keap1 (Homo sapiens, UniProt Q14145)
Assay: DiscoveRx PathHunter Nrf2-Keap1 nuclear translocation functional assay (agonist format)
Type: cell-based
Conditions: in duplicate, agonist mode; for EC50: 10 concentrations, 3-fold serial dilutions, 30 μM top concentration, normalized to CDDO methyl ester and vehicle; for activation at 10 µM: 6 h, single concentration of 10 μM, normalized to control ligand (CDDO methyl ester) and vehicle
Experimental: DiscoveRx PathHunter® Nrf2-Keap1 Functional Assay
DiscoveRx's Nrf2-Keapl translocation assay was used to profile compounds. Primary Screening was performed in duplicate at a single concentration of 10 μM and EC50 determinations were performed in duplicate at 10 concentrations with 3-fold serial dilutions at a 30 μM top concentration or an otherwise specified top concentration.
The PathHunter® Nuclear Translocation assay detects translocation of a target protein to, or from, the nucleus. In this system, Prolink™ (PK), a small enzyme fragment, is fused to the protein of interest and Enzyme Acceptor (EA) is localized in the nucleus. Activation of the signaling pathway induces the target protein to either transit into the nucleus, thus forcing complementation of the PK and EA fragments, or out of the nucleus, hindering complementation of the fragments.
Cell handling: PathHunter Pathway cell lines were expanded from freezer stocks according to standard procedures. 5000 cells were seeded in Cell Plating Reagent 0 (containing 1% FBS) to a total volume of 20 μL into white walled, 384-well microplates and incubated for the overnight prior to testing.
Agonist format: For Agonist determination, cells were incubated with sample to induce response. Dilution of sample stocks was performed to generate 100× sample in DMSO. Intermediate dilution of sample stocks was performed to generate 5× sample in assay buffer (Cell Plating Reagent 0 containing 1% FBS). 5 μL of 5× sample was added to cells and incubated at room temperature for 6 hours. Vehicle concentration was 1%.
Signal detection: Assay signal was generated through a single addition of 25 μL (100% v/v) of PathHunter Flash Detection reagent, followed by a one hour incubation at room temperature. Microplates were read following signal generation with a PerkinElmer Envision™ instrument for chemiluminescent signal detection.
Data analysis: Compound activity was analyzed using CBIS data analysis suite (ChemInnovation, CA). For agonist mode assays, percentage activity was calculated using the following formula: % Activity=100%×(mean RLU of test sample−mean RLU of vehicle control)/(mean MAX RLU control ligand−mean RLU of vehicle control). For EC50 determination, a control agonist dose response curve was generated in the Keap 1-Nrf2 biosensor assay, data was normalized to the maximal and minimal response observed in the presence of the control ligand and vehicle respectively. CDDO methyl ester was used as a control compound. Compounds were tested in the agonist mode of the assay and data was normalized to the maximal and minimal response observed in the presence of control ligand and vehicle.

Chain of Nrf2-Keap1 (Q14145 whole entry): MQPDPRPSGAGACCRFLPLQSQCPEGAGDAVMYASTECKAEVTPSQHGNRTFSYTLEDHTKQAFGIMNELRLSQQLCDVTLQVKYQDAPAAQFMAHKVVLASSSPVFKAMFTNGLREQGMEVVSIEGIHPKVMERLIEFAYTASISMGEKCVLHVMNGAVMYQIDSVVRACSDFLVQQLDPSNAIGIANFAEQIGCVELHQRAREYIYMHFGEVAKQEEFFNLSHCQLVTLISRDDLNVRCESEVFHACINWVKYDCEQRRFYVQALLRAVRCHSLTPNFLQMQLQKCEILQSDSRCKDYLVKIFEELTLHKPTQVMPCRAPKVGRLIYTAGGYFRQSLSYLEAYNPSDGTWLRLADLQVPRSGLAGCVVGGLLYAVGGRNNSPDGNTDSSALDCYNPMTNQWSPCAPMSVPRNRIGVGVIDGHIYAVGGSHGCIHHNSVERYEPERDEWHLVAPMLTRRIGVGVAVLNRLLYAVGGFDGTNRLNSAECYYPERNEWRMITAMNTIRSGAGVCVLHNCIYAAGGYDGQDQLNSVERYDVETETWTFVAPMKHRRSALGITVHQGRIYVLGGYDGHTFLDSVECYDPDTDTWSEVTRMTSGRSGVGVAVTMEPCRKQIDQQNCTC

| Compound | EC50 [nM] | activation at 10 µM [%] |
| --- | --- | --- |
| C=C1CC[C@H]2[C@@](C)(CC[C@@]3(C)O[S@@](=O)OC[C@@]23C)[C@@H]1C/C=C1/C(=O)OC[C@H]1O [Example 13, (S,E)-4-hydroxy-3-(2-((3S,4aR,6aS,7R,10aS,10bR)-4a,6a,10b-trimethyl-8-methylene-3-oxidodecahydro-1H-naphtho[2,1-d][1,3,2]dioxathiin-7-yl)ethylidene)dihydrofuran-2(3H)-one] | 500 to 2000 | > 100 |
| C=C1CC[C@H]2[C@@](C)(CC[C@@]3(C)ON=C[C@@]23C)[C@@H]1C/C=C1/C(=O)OC[C@H]1O [Example 14, (S,E)-4-hydroxy-3-(2-((3aR,5aS,6R,9aS,9bR)-3a,5a,9b-trimethyl-7-methylene-3a,4,5,5a,6,7,8,9,9a,9b-decahydronaphtho[1,2-d]isoxazol-6-yl)ethylidene)dihydrofuran-2(3H)-one] | > 2000 | > 100 |
| C=C1CC[C@@H]2[C@@H](C)[C@H](NC)CC[C@@]2(C)[C@@H]1C/C=C1/C(=O)OC[C@H]1O [Example 15, (4S,E)-3-(2-((1R,4aR,5R,8aR)-5,8a-dimethyl-6-(methylamino)-2-methylenedecahydronaphthalen-1-yl)ethylidene)-4-hydroxydihydrofuran-2(3H)-one] | 500 to 2000 | 51 to 100 |
| C=C1CC[C@@H]2[C@@H](C)[C@H](OC)CC[C@@]2(C)[C@@H]1C/C=C1/C(=O)OC[C@H]1O [Example 16, (S,E)-4-hydroxy-3-(2-((1R,4aR,5R,6R,8aR)-6-methoxy-5,8a-dimethyl-2-methylenedecahydronaphthalen-1-yl)ethylidene)dihydrofuran-2(3H)-one] | < 500 | > 100 |
| CO[C@@H]1CC[C@@]2(C)[C@H](C/C=C3/C(=O)OC[C@H]3O)C(C)=CC[C@@H]2[C@H]1C [Example 17, (S,E)-4-hydroxy-3-(2-((1R,4aR,5R,6R,8aR)-6-methoxy-2,5,8a-trimethyl-1,4,4a,5,6,7,8,8a-octahydronaphthalen-1-yl)ethylidene)dihydrofuran-2(3H)-one] | 500 to 2000 | 51 to 100 |
| CO[C@@H]1CC[C@@]2(C)C(C/C=C3/C(=O)OC[C@H]3O)=C(C)CC[C@@H]2[C@H]1C [Example 18, (S,E)-4-hydroxy-3-(2-((4aR,5R,6R,8aR)-6-methoxy-2,5,8a-trimethyl-3,4,4a,5,6,7,8,8a-octahydronaphthalen-1-yl)ethylidene)dihydrofuran-2(3H)-one] |  | 30 to 50 |
| C=C1CC[C@@H]2[C@]3(C)COS(=O)O[C@@H]3CC[C@@]2(C)[C@@H]1C/C=C1/C(=O)OCC1NC=O (stereo partly drawn) [Example 19, N-((E)-4-(2-((4aR,6aS,7R,10aS,10bR)-6a,10b-dimethyl-8-methylene-3-oxidodecahydro-1H-naphtho[2,1-d][1,3,2]dioxathiin-7-yl)ethylidene)-5-oxotetrahydrofuran-3-yl)formamide] |  | 51 to 100 |
| C=C1CC[C@@H]2[C@]3(C)COS(=O)O[C@@H]3CC[C@@]2(C)[C@@H]1C/C=C1/C(=O)OC[C@@H]1NC=O (stereo partly drawn) [Example 21, N-((3R,E)-4-(2-((4aR,6aS,7R,10aS,10bR)-6a,10b-dimethyl-8-methylene-3-oxidodecahydro-1H-naphtho[2,1-d][1,3,2]dioxathiin-7-yl)ethylidene)-5-oxotetrahydrofuran-3-yl)formamide] | > 2000 | 51 to 100 |
| C=C1CC[C@H]2[C@@](C)(CC[C@@]3(C)OS(=O)OC[C@@]23C)[C@@H]1C/C=C1/C(=O)OCC1NC=O (stereo partly drawn) [Example 22, N-((E)-5-oxo-4-(2-((4aR,6aS,7R,10aS,10bR)-4a,6a,10b-trimethyl-8-methylene-3-oxidodecahydro-1H-naphtho[2,1-d][1,3,2]dioxathiin-7-yl)ethylidene)tetrahydrofuran-3-yl)formamide] | 500 to 2000 | 51 to 100 |
| CC1(C)CCC[C@@]2(C)[C@H]1CCC1(CC1)[C@@H]2C/C=C1\C(=O)OCC1O (stereo partly drawn) [Example 23, (Z)-4-hydroxy-3-(2-((1′S,4a′S,8a′S)-5′,5′,8a′-trimethyloctahydro-1′H-spiro[cyclopropane-1,2′-naphthalen]-1′-yl)ethylidene)dihydrofuran-2(3H)-one] |  | 51 to 100 |
| CC1(C)CCC[C@@]2(C)[C@H]1CCC1(CC1)[C@@H]2C/C=C1/C(=O)OC[C@H]1NC=O [Example 24, N—((S,E)-5-oxo-4-(2-((1′S,4a′S,8a′S)-5′,5′,8a′-trimethyloctahydro-1′H-spiro[cyclopropane-1,2′-naphthalen]-1′-yl)ethylidene)tetrahydrofuran-3-yl)formamide] |  | 51 to 100 |
| CC1(C)CCC[C@@]2(C)[C@H]1CCC1(CC1)[C@@H]2C/C=C1\C(=O)OC[C@H]1NC=O [Example 25, N—((S,Z)-5-oxo-4-(2-((1′S,4a′S,8a′S)-5′,5′,8a′-trimethyloctahydro-1′H-spiro[cyclopropane-1,2′-naphthalen]-1′-yl)ethylidene)tetrahydrofuran-3-yl)formamide] |  | 51 to 100 |
| CC(=O)N[C@@H]1COC(=O)/C1=C/C[C@H]1C2(CC[C@H]3C(C)(C)CCC[C@@]31C)CC2 [Example 26, N—((S,E)-5-oxo-4-(2-((1′S,4a′S,8a′S)-5′,5′,8a′-trimethyloctahydro-1′H-spiro[cyclopropane-1,2′-naphthalen]-1′-yl)ethylidene)tetrahydrofuran-3-yl)acetamide] |  | 30 to 50 |
| CC(=O)N[C@@H]1COC(=O)/C1=C\C[C@H]1C2(CC[C@H]3C(C)(C)CCC[C@@]31C)CC2 [Example 27, N—((S,Z)-5-oxo-4-(2-((1′S,4a′S,8a′S)-5′,5′,8a′-trimethyloctahydro-1′H-spiro[cyclopropane-1,2′-naphthalen]-1′-yl)ethylidene)tetrahydrofuran-3-yl)acetamide] |  | 30 to 50 |
| C=C1CC[C@@H]2[C@]3(C)COS(=O)O[C@@H]3CC[C@@]2(C)[C@@H]1C/C=C1\C(=O)OC[C@H]1NC=O (stereo partly drawn) [Example 28, N-((3S,Z)-4-(2-((4aR,6aS,7R,10aS,10bR)-6a,10b-dimethyl-8-methylene-3-oxidodecahydro-1H-naphtho[2,1-d][1,3,2]dioxathiin-7-yl)ethylidene)-5-oxotetrahydrofuran-3-yl)formamide] |  | 51 to 100 |
| C=C1CC[C@@H]2[C@]3(C)COS(=O)O[C@@H]3CC[C@@]2(C)[C@@H]1C/C=C1\C(=O)OC[C@@H]1NC=O (stereo partly drawn) [Example 29, N-((3R,Z)-4-(2-((4aR,6aS,7R,10aS,10bR)-6a,10b-dimethyl-8-methylene-3-oxidodecahydro-1H-naphtho [2,1-d][1,3,2]dioxathiin-7-yl)ethylidene)-5-oxotetrahydrofuran-3-yl)formamide] |  | 51 to 100 |
| CC1(C)CCC[C@@]2(C)[C@H]1CCC1(CC1)[C@@H]2CC/C=C1/C(=O)OCC1O (stereo partly drawn) [Example 32, (E)-4-hydroxy-3-(3-((1′S,4a′S,8a′S)-5′,5′,8a′-trimethyloctahydro-1′H-spiro[cyclopropane-1,2′-naphthalen]-1′-yl)propylidene)dihydrofuran-2(3H)-one] |  | 30 to 50 |
| CC1(C)CCC[C@@]2(C)[C@H]1CCC1(CC1)[C@@H]2CC/C=C1/C(=O)OC[C@H]1NC=O [Example 33, N-((S,E)-5-oxo-4-(3-((1′S,4a′S,8a′S)-5′,5′,8a′-trimethyloctahydro-1′H-spiro[cyclopropane-1,2′-naphthalen]-1′-yl)propylidene)tetrahydrofuran-3-yl)formamide] |  | 30 to 50 |
